Read-outs that look alike come from different tables or passages of the source. No end group written: not given here.
Key:
Test in all cases: biochemical
Assay type in all cases: binding
HLA-DR DRB3*0101 (DR52) = HLA-DR DRB3*0101 (DR52) (Homo sapiens, UniProt P01903+P79483)
HLA-DR DRB1*0301 (DR3) = HLA-DR DRB1*0301 (DR3) (Homo sapiens, UniProt P01903+P01911, A100K/A102G/A103R/A169T/F55Y/I96L/K41T/L162R/M171V/P40S/Q125H/Q178H/Q39Y/R42S/S66N/T106N/T262R/W38E/Y61H)
HLA-DR DRB1*0701 (DR7) = HLA-DR DRB1*0701 (DR7) (Homo sapiens, UniProt P01903+P01911, A100R/A102G/A103Q/D57E/D86V/E43K/F76Y/K127E/L162R/M171V/P40G/Q125H/Q99D/R33Q/R42Y/R54Q/S133A/S66F/T210M/V115G/Y107V/Y59L/Y89S); details: DRB1 *0701
HLA-DR DRB1*0401 (DR4) = HLA-DR DRB1*0401 (DR4) (Homo sapiens, UniProt P01903+P01911, A100K/A169T/F76Y/I96L/K127E/L162R/M171V/N62H/P40V/Q125Y/R42H/S133A/S149N/S66Y/V115G/V209L/W38E); details: DRB1 *0401
HLA-DR DRB1*1101 (DR11) = HLA-DR DRB1*1101 (DR11) (Homo sapiens, UniProt P01903+P01911, A100R/A169T/A87E/I96F/K41T/L162R/M171V/P40S/Q125H/Q178H/Q39Y/Q99D/R42S/S66Y/T262R/V115G/W38E)
HLA-DR DRB1*1101 (DR11), sequence (P01903 26-254 limits assumed, other chains not shown): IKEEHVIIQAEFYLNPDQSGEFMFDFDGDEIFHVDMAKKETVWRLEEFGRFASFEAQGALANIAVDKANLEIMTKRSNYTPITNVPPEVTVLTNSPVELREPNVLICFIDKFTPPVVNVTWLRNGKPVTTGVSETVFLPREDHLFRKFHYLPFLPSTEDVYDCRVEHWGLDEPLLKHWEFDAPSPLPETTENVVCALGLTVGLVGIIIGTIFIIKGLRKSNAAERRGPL

HLA-DR DRB1*1501 (DR15) = HLA-DR DRB1*1501 (DR15) (Homo sapiens, UniProt P01903+P01911)
HLA-DR DRB5*0101 (DR51) = HLA-DR DRB5*0101 (DR51) (Homo sapiens, UniProt P01903+Q30154)
HLA-DR DRB4*0101 (DR53) = HLA-DR DRB4*0101 (DR53) (Homo sapiens, UniProt P01903+P13762, G164S)
HLA-DR DRB1*1302 (DR13) = HLA-DR DRB1*1302 (DR13) (Homo sapiens, UniProt P01903+P01911, A100E/A169T/K41T/L162R/M171V/P40S/Q125H/Q178H/Q39Y/Q99D/R42S/S66N/T262R/V115G/W38E/Y61H)
HLA-DR DRB1*1302 (DR13), sequence (P01903 26-254 limits assumed, other chains not shown): as above

HLA-DR DRB1*0301 (DR3), sequence (P01903 26-254 limits assumed, other chains not shown): as above

GAAVVHEIVRSFGTL gave an IC50 (HLA-DR DRB3*0101 (DR52)) of 0.788 µM.

GAGPKDNGGACGYKDVDKAP was tested, and the IC50 (HLA-DR DRB1*0301 (DR3)) was greater than 30 µM, the IC50 (HLA-DR DRB1*0701 (DR7)) was greater than 12.5 µM and the IC50 (HLA-DR DRB1*0401 (DR4)) was greater than 0.667 µM. The IC50 (HLA-DR DRB3*0101 (DR52)) was greater than 20 µM.

GMLPVCPLIPGSSTTSTGP showed an IC50 (HLA-DR DRB1*0301 (DR3)) greater than 900 µM, an IC50 (HLA-DR DRB1*1101 (DR11); DRB1 *1101) of 2.5 µM and an IC50 (HLA-DR DRB1*0401 (DR4)) of 0.4 µM. The IC50 (HLA-DR DRB3*0101 (DR52)) was greater than 25 µM.

In the case of QAKKEKLNIWSEDNADSGQ, the IC50 (HLA-DR DRB1*0301 (DR3)) is reported as greater than 900 µM, the IC50 (HLA-DR DRB1*0701 (DR7)) is reported as greater than 250 µM and the IC50 (HLA-DR DRB3*0101 (DR52)) is reported as greater than 5.56 µM.

With FAGIRRDGLLLRIVD the IC50 (HLA-DR DRB1*1501 (DR15); read-out: DRBI *1501) was 0.028 µM and the IC50 (HLA-DR DRB3*0101 (DR52); read-out: DRB3 *0101) was 0.553 µM.

FVNQHLTGSHLVEAL showed an IC50 (HLA-DR DRB1*1501 (DR15); read-out: DRBI *1501) of 0.799 µM, an IC50 (HLA-DR DRB5*0101 (DR51); read-out: DRB5 *0101) greater than 43.3 µM and an IC50 (HLA-DR DRB1*1101 (DR11); read-out: DRB1 *1101) greater than 10.5 µM. For the same molecule, the IC50 (HLA-DR DRB3*0101 (DR52); read-out: DRB3 *0101) was 94.5 µM.

In the case of `CC[C@H](C)[C@H](NC(=O)[C@H](Cc1ccccc1)NC(=O)[C@H](C)NC(=O)[C@H](CCCNC(=N)N)NC(=O)[C@H](CCC(=O)O)NC(=O)[C@H](CC(C)C)NC(=O)[C@H](Cc1ccccc1)NC(=O)[C@H](CCSC)NC(=O)[C@H](CC(C)C)NC(=O)[C@H](CCC(N)=O)NC(=O)[C@@H](N)CC(=O)O)C(=O)N[C@@H](CC(=O)O)C(=O)N1CCC[C@H]1C(=O)N[C@@H](CC(C)C)C(=O)NCC(=O)O`, the IC50 (HLA-DR DRB1*0301 (DR3)) is reported as greater than 19.7 µM, the IC50 (HLA-DR DRB3*0101 (DR52)) is reported as 17.1 µM and the IC50 (HLA-DR DRB4*0101 (DR53); DRB4 *0101) is reported as 0.0066 µM.

For YLVCGERGFFYTKPT, the IC50 (HLA-DR DRB1*1501 (DR15); DRBI *1501) was greater than 25.6 µM, the IC50 (HLA-DR DRB5*0101 (DR51); DRB5 *0101) was greater than 28.4 µM and the IC50 (HLA-DR DRB1*1101 (DR11); DRB1 *1101) was greater than 60.6 µM. The IC50 (HLA-DR DRB3*0101 (DR52)) was 12.8 µM, the IC50 (HLA-DR DRB1*1302 (DR13); DRBI *1302) was 3.47 µM and the IC50 (HLA-DR DRB4*0101 (DR53); DRB4 *0101) was 40.4 µM.

AFGSMAKKGEEQNVRSAGEL showed an IC50 (HLA-DR DRB1*0301 (DR3)) greater than 30 µM, an IC50 (HLA-DR DRB1*1101 (DR11); DRB1 *1101) of 1.82 µM and an IC50 (HLA-DR DRB1*0701 (DR7)) greater than 12.5 µM. It also gave an IC50 (HLA-DR DRB1*0401 (DR4)) greater than 0.667 µM and an IC50 (HLA-DR DRB3*0101 (DR52)) greater than 33.3 µM.

Work on TAEYGDKWLDAKSTWYGKPT yielded an IC50 (HLA-DR DRB1*0301 (DR3)) greater than 30 µM, an IC50 (HLA-DR DRB1*0701 (DR7)) of 3.13 µM and an IC50 (HLA-DR DRB1*0401 (DR4)) greater than 0.667 µM. The IC50 (HLA-DR DRB3*0101 (DR52)) was greater than 20 µM and the IC50 (HLA-DR DRB4*0101 (DR53); DRB4 *0101) was 10 µM.

Work on AWYAWRNRCK yielded an IC50 (HLA-DR DRB5*0101 (DR51); read-out: DRB5 *0101) of 0.044 µM, an IC50 (HLA-DR DRB1*1101 (DR11); read-out: DRB1 *1101) greater than 5 µM and an IC50 (HLA-DR DRB3*0101 (DR52); read-out: DRB3 *0101) greater than 11.1 µM.

Molecule DDYVKQYTKQYTKQNTLKK has an IC50 (HLA-DR DRB5*0101 (DR51); DRB5 *0101) of 0.035 µM, an IC50 (HLA-DR DRB1*1101 (DR11); DRB1 *1101) greater than 1.11 µM and an IC50 (HLA-DR DRB1*0401 (DR4)) of 0.16 µM. It also gave an IC50 (HLA-DR DRB3*0101 (DR52)) greater than 11.1 µM.

AKSTWYGKPTGAGPKDNGGA showed an IC50 (HLA-DR DRB1*0301 (DR3)) greater than 30 µM, an IC50 (HLA-DR DRB1*0701 (DR7)) greater than 12.5 µM and an IC50 (HLA-DR DRB3*0101 (DR52)) greater than 20 µM. It also gave an IC50 (HLA-DR DRB4*0101 (DR53); DRB4 *0101) of 10 µM.

Work on TPDKLTGPFTVRYTTEGGTK yielded an IC50 (HLA-DR DRB1*0301 (DR3)) greater than 900 µM, an IC50 (HLA-DR DRB1*0701 (DR7)) greater than 12.5 µM and an IC50 (HLA-DR DRB1*0401 (DR4)) greater than 0.667 µM. For the same molecule, the IC50 (HLA-DR DRB3*0101 (DR52)) was greater than 25 µM.

Molecule KPAVYTKVVHYRKWI has an IC50 (HLA-DR DRB1*1501 (DR15); read-out: DRBI *1501) of 0.401 µM, an IC50 (HLA-DR DRB5*0101 (DR51); read-out: DRB5 *0101) of 0.023 µM and an IC50 (HLA-DR DRB3*0101 (DR52); read-out: DRB3 *0101) of 7.19 µM.

In the case of AVGLPSIPVHPIGYY, the IC50 (HLA-DR DRB1*1501 (DR15); read-out: DRBI *1501) is reported as 0.518 µM, the IC50 (HLA-DR DRB5*0101 (DR51); read-out: DRB5 *0101) is reported as 38.5 µM and the IC50 (HLA-DR DRB1*1101 (DR11); read-out: DRB1 *1101) is reported as 33.3 µM. For the same molecule, the IC50 (HLA-DR DRB3*0101 (DR52); read-out: DRB3 *0101) was greater than 11.8 µM and the IC50 (HLA-DR DRB4*0101 (DR53); read-out: DRB4 *0101) was 5.39 µM.

Molecule YGRILHYLKAKEDSH [YORILHYLKAKBDSH] has an IC50 (HLA-DR DRB1*1501 (DR15); DRBI *1501) of 0.016 µM, an IC50 (HLA-DR DRB5*0101 (DR51); DRB5 *0101) of 0.039 µM and an IC50 (HLA-DR DRB1*1101 (DR11); DRB1 *1101) of 0.812 µM. It also gave an IC50 (HLA-DR DRB3*0101 (DR52)) of 455 µM, an IC50 (HLA-DR DRB1*1302 (DR13); DRBI *1302) of 2.78 µM and an IC50 (HLA-DR DRB4*0101 (DR53); DRB4 *0101) of 0.14 µM.

MTNLAALFPPEGVSI gave an IC50 (HLA-DR DRB5*0101 (DR51); read-out: DRB5 *0101) of 141 µM, an IC50 (HLA-DR DRB1*1101 (DR11); read-out: DRB1 *1101) of 141 µM and an IC50 (HLA-DR DRB3*0101 (DR52); read-out: DRB3 *0101) greater than 8.83 µM. For the same molecule, the IC50 (HLA-DR DRB4*0101 (DR53); read-out: DRB4 *0101) was 4.61 µM.

Work on VRVEILRNFYVINRL yielded an IC50 (HLA-DR DRB1*1501 (DR15); read-out: DRBI *1501) of 0.00104 µM, an IC50 (HLA-DR DRB5*0101 (DR51); read-out: DRB5 *0101) of 0.485 µM and an IC50 (HLA-DR DRB1*1101 (DR11); read-out: DRB1 *1101) of 0.504 µM. It also gave an IC50 (HLA-DR DRB3*0101 (DR52); read-out: DRB3 *0101) of 80.4 µM, an IC50 (HLA-DR DRB1*1302 (DR13); read-out: DRBI *1302) of 0.0058 µM and an IC50 (HLA-DR DRB4*0101 (DR53); read-out: DRB4 *0101) of 0.187 µM.

ALQAQKEAISPPDAA was tested, and the IC50 (HLA-DR DRB3*0101 (DR52); read-out: DRB3 *0101) was greater than 91.7 µM.

For HSLFHPEDTGQVFQV, the IC50 (HLA-DR DRB3*0101 (DR52); read-out: DRB3 *0101) was 0.553 µM.

VAQVRGGNIVFELANS showed an IC50 (HLA-DR DRB5*0101 (DR51); read-out: DRB5 *0101) of 64.4 µM, an IC50 (HLA-DR DRB1*1101 (DR11); read-out: DRB1 *1101) greater than 50 µM and an IC50 (HLA-DR DRB3*0101 (DR52); read-out: DRB3 *0101) greater than 21.9 µM. For the same molecule, the IC50 (HLA-DR DRB1*1302 (DR13); read-out: DRBI *1302) was 2.8 µM and the IC50 (HLA-DR DRB4*0101 (DR53); read-out: DRB4 *0101) was 0.1 µM.

— US20060079453A1, “Hla binding peptides and their uses” (priority 2002, published 2006)
